Results from US20220202859A1, “CANCER TREATMENT USING CD38 INHIBITOR AND/OR LENALIDOMIDE AND T-CELLS EXPRESSING A CHIMERIC ANTIGEN RECEPTOR” (CRISPR THERAPEUTICS AG, priority 2020, published 2022).
One block for each molecule: values may come before it.

Tests used:
anti-BCMA CAR-T cells [1] = test: Lenalidomide on cytokine secretion of anti-BCMA CAR-T cells co-cultured with JeKo-1; type: cell-based, human; conditions: overnight culture with JeKo-1, 2:1 effector to target; all concentrations tested
Description: Addition of Lenalidomide to the co-culture media led to enhanced cytokine secretion of multiple effector cytokines, among them IFN-γ and TNF-α following CAR-T cell engagement by the BCMA expressing target cell line (FIG. 1C).

NK cells [2] = test: NK cytotoxicity towards B2Mneg T cells with Lenalidomide; type: cell-based, human; conditions: overnight co-culture; wide range of Lenalidomide concentrations
Description: Two modes of allogenic immune recognition were tested: immune recognition of B2M^neg cells by NK cells, and immune recognition by allogenic T cells. Examination of the cytotoxic activity of NK cells towards B2M^neg cells was tested following overnight (ON) co-culture in varying concentrations of NK to T cells, and varying concentrations of Lenalidomide. Increasing concentration of NK to B2M^neg T cells led to an increase in the cytotoxic activity of NK cells towards B2M^neg T cells.

NK cells [3] = test: Cytokine secretion in co-culture of NK cells with B2Mneg T cells with Lenalidomide; type: cell-based, human
Description: (§1) Additionally, cytokine secretion was tested at the end of the co-culture described above, following co-culture of NK cells with B2M^neg T cells, K562 cells (a B2M^neg cell line, commonly used as a positive control for activation of NK cells due to lack of B2M expression), and unedited T cells (used as a negative control for NK cells activation).

NK cells [4] = test: Cytokine secretion in co-culture of NK cells with K562 cells with Lenalidomide; type: cell-based, human
Description: as §1

PBMCs = test: MLR assay (mixed lymphocyte reaction) with Lenalidomide; type: cell-based, human
Description: Next, allo-reactivity towards edited T cells (B2M^neg/TCR^neg) was tested using an MLR assay (mixed lymphocyte reaction). In this assay PBMCs (“responder cells”) were mixed with irradiated auto or allo T cells (“stimulator cells”). At the end of the assay, the activation of the responder cells was evaluated by measuring the cell proliferation in the co-culture, with cell proliferation serving as a proxy for immune activation. In the assay shown in FIG. 19C, both auto (donor 1) & allo (donor 2 & 3) were evaluated for immune activation following co-culture. […] As expected, immune activation was reduced upon deletion of B2M & TRAC from the T cells, as evident by the reduced proliferation in both donors tested.

anti-BCMA CAR-T cells [5] = test: Cytokine secretion of CAR-T cells produced in the presence of Lenalidomide, co-culture with JeKo-1; type: cell-based, human; conditions: Lenalidomide 0.5, 2 & 10 uM during ~10 day production; JeKo-1 at 0.5:1 effector to target, no Lenalidomide in assay
Description: PBMCs were thawed and activated by T cell activation agents to enrich for T cells. After 3 days, T cells were edited for B2M and TRAC knock-out using a CRISPR/Cas gene editing system. An anti-BCMA expression cassette (as an exemplary CAR construct) was knocked into the TRAC locus to produce anti-BCMA CAR-T cells. Following the editing procedure, resulting T cells were expanded in the presence of absence of Lenalidomide in a concentration of 0.5, 2, & 10 uM for approximately 10 days. The resulting cells were later evaluated for cytokine secretion following antigen stimulation, in the absence of Lenalidomide.
The inclusion of Lenalidomide […] led to enhanced cytokine secretion of multiple effector cytokines, among them IFN-γ and TNF-α, upon CAR-T engagement by the BCMA expressing target cell line (FIG. 20).

anti-BCMA CAR-T cells [6] = test: Impact of Lenalidomide on editing efficiency and CD4/CD8 ratio of CAR-T cells; type: cell-based, human; conditions: day 8
Description: Editing efficiency, including TRAC−%, B2M−% and CAR+% were assessed at day 7/8 and/or day 13/14 with anti-BCMA CAR-T cells. […] Anti-BCMA CAR-T cells were not harvested around day 14 due to slower growth rate. About 51-58% of CAR+%, 96% TRAC−% and 75-77% of B2M−% were detected from anti-BCMA CAR-T cells with or without Lenalidomide treatment.
CD4% and CD8% were assessed at day 7/8 and/or day 13/14 with the anti-BCMA CAR-T cells disclosed above. […] The anti-BCMA CAR-T cells were not assessed and harvested around day 14 due to slower expansion. Compared with Lenalidomide untreated anti-BCMA CAR-T cells, there was dose-dependent increase of CD8 positive cells, ranging from 7-15%. […] Expansion scale (small or medium) didn't impact the CD4 and CD8 phonotype.

[7] = lenalidomide-treated subjects; prescribing information; cited from earlier work
MM.1S tumors = test: Lenalidomide plus anti-BCMA CAR-T cells in MM.1S subcutaneous tumor model; conditions: single arm: 3 million CAR-T cells, or Lenalidomide 1.5 or 10 mg/kg
anti-BCMA CAR-T cells [8] = test: Lenalidomide on in vitro expansion and senescence (CD57) of anti-BCMA CAR-T cells
mouse BCMA = target: T1, mouse BCMA (mouse, UniProt O88472 1-49, limits assumed); test: not described (statement in Example 5)
T1 construct: also called murine BCMA
T1 chain (looked up): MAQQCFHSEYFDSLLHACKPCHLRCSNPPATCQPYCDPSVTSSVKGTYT

[9] = target: T2, biotinylated recombinant human BCMA (Acro Biosystems Cat: #BC7-H82F0) (human, UniProt Q02223 1-54, biotinylated); test: flow cytometry of CTX120 cells, detection of the surface CAR with biotinylated BCMA and fluorescent streptavidin
T2 construct: Bought reagent
T2 sequence (looked up): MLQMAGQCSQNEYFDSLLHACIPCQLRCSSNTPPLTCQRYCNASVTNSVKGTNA

Molecule: Nc1cccc2c1CN(C1CCC(=O)NC1=O)C2=O (stereo not shown) [Lenalidomide]
effector cytokine secretion upon antigen stimulation (anti-BCMA CAR-T cells [1]): enhanced effector cytokine secretion upon antigen stimulation | NK cell killing of B2Mneg T cells (NK cells [2]): did not lead to an increased cell killing of the B2M^neg T cells | cytokine secretion (NK cells [3]): minimal changes were observed upon addition of Lenalidomide | cytokine secretion (NK cells [4]): Upregulation of secretion of several cytokines | proliferation upon allo co-culture with edited T cells (PBMCs; edited (B2Mneg/TCRneg) stimulator T cells): minimal changes upon addition of Lenalidomide to the co-culture | allo reactivity towards unedited T cells (PBMCs; unedited stimulator T cells, donor 2): may in some cases enhance allo reactivity towards unedited T cells | effector cytokine secretion upon antigen stimulation (anti-BCMA CAR-T cells [5]): enhance effector cytokine secretion upon antigen stimulation | overall distribution of CD4 and CD8 cells (anti-BCMA CAR-T cells [6]): not significantly altered | dose-dependent increase of CD8 positive cells (anti-BCMA CAR-T cells [6]; compared with Lenalidomide untreated cells): 7-15% | grade 3 or 4 neutropenia [7]: up to 59% | grade 3 or 4 thrombocytopenia [7]: up to 38% | effect on tumor regression and mouse survival compared to no treatment arm (MM.1S tumors): minimal effect on both tumor regression and mouse survival | higher expansion of anti-BCMA CAR-T cells (anti-BCMA CAR-T cells [8]; 0.5 uM to 10 uM Lenalidomide): 5-30 fold | senescence marker CD57 expression (anti-BCMA CAR-T cells [8]; all tested concentrations, 10 day culture): reduced expression of CD57

binding result (mouse BCMA): no binding | binding result [9]: binds
B1: anti-BCMA CAR (CTX-166b) expressed on CTX120 cells (other)
chain: QVQLVQSGAELKKPGASVKVSCKASGNTLTNYVIHWVRQAPGQRLEWMGYILPYNDLTKYSQKFQGRVTITRDKSASTAYMELSSLRSEDTAVYYCTRWDWDGFFDPWGQGTTVTVSSGGGGSGGGGSGGGGSEIVMTQSPATLSVSPGERASISCRASQSLVHSNGNTHLHWYQQRPGQAPRLLIYSVSNRFSEVPARFSGSGSGTDFTLTISSVESEDFAVYYCSQTSHIPYTFGGGTKLEIKSAAAFVPVFLPAKPTTTPAPRPPTPAPTIASQPLSLRPEACRPAAGGAVHTRGLDFACDIYIWAPLAGTCGVLLLSLVITLYCNHRNRKRGRKKLLYIFKQPFMRPVQTTQEEDGCSCRFPEEEEGGCELRVKFSRSADAPAYQQGQNQLYNELNLGRREEYDVLDKRRGRDPEMGGKPRRKNPQEGLYNELQKDKMAEAYSEIGMKGERRRGKGHDGLYQGLSTATKDTYDALHMQALPPR
notes: also called CTX120 anti-BCMA CAR; CTX120 CAR
